Data: ChEMBL document CHEMBL1201862, “PubChem BioAssay data set” (2004)
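A five-concentration, 48-hour dose response in 96-well plates underlies each endpoint, interpolated linearly between surrounding concentrations. Abbreviation: GI50, concentration required for 50% inhibition of growth.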 Calls of active or inactive are those of the source. Rule as the data show it: active = GI50 up to about 1.1 µM and inactive = higher.

What was measured:
Experiment in all cases: growth of human tumour cells (NCI), 48 h
[1] = test system: 786-0
[2] = test system: A498
[3] = test system: A549
[4] = test system: ACHN
[5] = test system: BT-549
[6] = test system: CAKI-1
[7] = test system: CCRF-CEM
[8] = test system: COLO 205
[9] = test system: DU-145
[10] = test system: EKVX
[11] = test system: HCC 2998
[12] = test system: HCT-116
[13] = test system: HCT-15
[14] = test system: HL-60
[15] = test system: HOP-62
[16] = test system: HOP-92
[17] = test system: HT-29
[18] = test system: Hs-578T
[19] = test system: IGROV-1
[20] = test system: K562
[21] = test system: KM12
[22] = test system: LOX IMVI
[23] = test system: M14
[24] = test system: MCF7
[25] = test system: MDA-MB-231
[26] = test system: MDA-MB-435
[27] = test system: MDA-N
[28] = test system: MOLT-4
[29] = test system: Malme-3M
[30] = test system: NCI-H23
[31] = test system: NCI-H460
[32] = test system: NCI-H522
[33] = test system: NCI/ADR-RES
[34] = test system: OVCAR-3
[35] = test system: OVCAR-5
[36] = test system: OVCAR-8
[37] = test system: PC-3
[38] = test system: RPMI-8226
[39] = test system: RXF 393
[40] = test system: SF-268
[41] = test system: SF-295
[42] = test system: SF-539
[43] = test system: SK-MEL-28
[44] = test system: SK-MEL-2
[45] = test system: SK-MEL-5
[46] = test system: SK-OV-3
[47] = test system: SN12C
[48] = test system: SNB-19
[49] = test system: SNB-75
[50] = test system: SR
[51] = test system: SW-620
[52] = test system: T47D
[53] = test system: TK-10
[54] = test system: U-251
[55] = test system: UACC-257
[56] = test system: UACC-62
[57] = test system: UO-31
[58] = test system: NCI-H226
[59] = test system: OVCAR-4

CC12CCC(C1)C(C)(C)C2OC(=O)c1ccccc1N (stereo not drawn)
GI50 [1]: 16.6 µM (inactive) | GI50 [2]: 15.2 µM (inactive) | GI50 [3]: 14.8 µM (inactive) | GI50 [4]: 17.5 µM (inactive) | GI50 [5]: 19.1 µM (inactive) | GI50 [6]: 15.2 µM (inactive) | GI50 [7]: 0.678 µM (active) | GI50 [8]: 15.4 µM (inactive) | GI50 [9]: 16.4 µM (inactive) | GI50 [10]: 15.6 µM (inactive) | GI50 [11]: 13.3 µM (inactive) | GI50 [12]: 13.5 µM (inactive) | GI50 [13]: 15.9 µM | GI50 [14]: 12.9 µM (inactive) | GI50 [15]: 16.9 µM (inactive) | GI50 [16]: 11.8 µM (inactive) | GI50 [17]: 14.9 µM (inactive) | GI50 [18]: 15.6 µM (inactive) | GI50 [19]: 25.8 µM (inactive) | GI50 [20]: 14.9 µM (inactive) | GI50 [21]: 16.3 µM (inactive) | GI50 [22]: 18.2 µM (inactive) | GI50 [23]: 16.6 µM (inactive) | GI50 [24]: 16.5 µM (inactive) | GI50 [25]: 15.9 µM (inactive) | GI50 [26]: 16.7 µM (inactive) | GI50 [27]: 15.5 µM (inactive) | GI50 [28]: 6 µM (inactive) | GI50 [29]: 13.4 µM (inactive) | GI50 [30]: 15.7 µM (inactive) | GI50 [31]: 15.7 µM (inactive) | GI50 [32]: 10.1 µM (inactive) | GI50 [33]: 16.6 µM (inactive) | GI50 [34]: 15.2 µM (inactive) | GI50 [35]: 18.2 µM (inactive) | GI50 [36]: 18.5 µM (inactive) | GI50 [37]: 14.3 µM (inactive) | GI50 [38]: 2.9 µM (inactive) | GI50 [39]: 12.2 µM (inactive) | GI50 [40]: 16.8 µM (inactive) | GI50 [41]: 17.3 µM (inactive) | GI50 [42]: 18.6 µM (inactive) | GI50 [43]: 16.7 µM (inactive) | GI50 [44]: 14.8 µM (inactive) | GI50 [45]: 17 µM (inactive) | GI50 [46]: 16.7 µM (inactive) | GI50 [47]: 17.6 µM (inactive) | GI50 [48]: 17.2 µM (inactive) | GI50 [49]: 20.5 µM (inactive) | GI50 [50]: 8.24 µM (inactive) | GI50 [51]: 15.5 µM (inactive) | GI50 [52]: 14.9 µM (inactive) | GI50 [53]: 16.9 µM (inactive) | GI50 [54]: 17.6 µM (inactive) | GI50 [55]: 15.4 µM (inactive) | GI50 [56]: 15.5 µM (inactive) | GI50 [57]: 17 µM (inactive)

NC1(P(=O)(O)O)CCCCC1
GI50 [1]: > 100 µM (inactive) | GI50 [2]: > 100 µM (inactive) | GI50 [3]: > 100 µM (inactive) | GI50 [4]: > 100 µM (inactive) | GI50 [5]: > 100 µM (inactive) | GI50 [6]: > 100 µM (inactive) | GI50 [7]: > 100 µM (inactive) | GI50 [8]: > 100 µM (inactive) | GI50 [9]: > 100 µM (inactive) | GI50 [10]: > 100 µM (inactive) | GI50 [12]: > 100 µM (inactive) | GI50 [13]: > 100 µM | GI50 [14]: < 0.01 µM (active) | GI50 [15]: > 100 µM (inactive) | GI50 [16]: > 100 µM (inactive) | GI50 [17]: > 100 µM (inactive) | GI50 [18]: > 100 µM (inactive) | GI50 [19]: > 100 µM (inactive) | GI50 [20]: > 100 µM (inactive) | GI50 [21]: > 100 µM (inactive) | GI50 [22]: > 100 µM (inactive) | GI50 [23]: > 100 µM (inactive) | GI50 [24]: > 100 µM (inactive) | GI50 [25]: > 100 µM (inactive) | GI50 [26]: > 100 µM (inactive) | GI50 [27]: > 100 µM (inactive) | GI50 [28]: > 100 µM (inactive) | GI50 [29]: > 100 µM (inactive) | GI50 [58]: > 100 µM (inactive) | GI50 [30]: > 100 µM (inactive) | GI50 [31]: > 100 µM (inactive) | GI50 [32]: > 100 µM (inactive) | GI50 [33]: > 100 µM (inactive) | GI50 [34]: > 100 µM (inactive) | GI50 [59]: > 100 µM (inactive) | GI50 [35]: > 100 µM (inactive) | GI50 [36]: > 100 µM (inactive) | GI50 [37]: > 100 µM (inactive) | GI50 [38]: > 100 µM (inactive) | GI50 [39]: > 100 µM (inactive) | GI50 [40]: > 100 µM (inactive) | GI50 [41]: > 100 µM (inactive) | GI50 [42]: > 100 µM (inactive) | GI50 [43]: > 100 µM (inactive) | GI50 [44]: > 100 µM (inactive) | GI50 [45]: > 100 µM (inactive) | GI50 [46]: > 100 µM (inactive) | GI50 [47]: > 100 µM (inactive) | GI50 [48]: > 100 µM (inactive) | GI50 [49]: > 100 µM (inactive) | GI50 [50]: > 100 µM (inactive) | GI50 [51]: > 100 µM (inactive) | GI50 [52]: > 100 µM (inactive) | GI50 [53]: > 100 µM (inactive) | GI50 [54]: > 100 µM (inactive) | GI50 [55]: > 100 µM (inactive) | GI50 [56]: > 100 µM (inactive)

O=C(/C=C/C=C/c1ccccc1)c1ccccc1
GI50 [1]: 14.3 µM (inactive) | GI50 [2]: 15.1 µM (inactive) | GI50 [3]: 18.1 µM (inactive) | GI50 [5]: 18.8 µM (inactive) | GI50 [6]: 17.1 µM (inactive) | GI50 [8]: 17.7 µM (inactive) | GI50 [9]: 17.3 µM (inactive) | GI50 [10]: 15.3 µM (inactive) | GI50 [11]: 17.8 µM (inactive) | GI50 [12]: 17.6 µM (inactive) | GI50 [13]: 12.2 µM | GI50 [14]: 3.6 µM (inactive) | GI50 [16]: 18.4 µM (inactive) | GI50 [17]: 16.2 µM (inactive) | GI50 [18]: 20 µM (inactive) | GI50 [19]: 16.9 µM (inactive) | GI50 [20]: 17.1 µM (inactive) | GI50 [21]: 14.3 µM (inactive) | GI50 [22]: 15.8 µM (inactive) | GI50 [23]: 18 µM (inactive) | GI50 [24]: 16.3 µM (inactive) | GI50 [25]: 21.5 µM (inactive) | GI50 [26]: 17.7 µM (inactive) | GI50 [27]: 16.2 µM (inactive) | GI50 [28]: 14.6 µM (inactive) | GI50 [29]: 10 µM (inactive) | GI50 [58]: 16.7 µM (inactive) | GI50 [31]: 21.3 µM (inactive) | GI50 [32]: 4.66 µM (inactive) | GI50 [33]: 13.8 µM (inactive) | GI50 [34]: 19.2 µM (inactive) | GI50 [59]: 17.7 µM (inactive) | GI50 [35]: 14.7 µM (inactive) | GI50 [36]: 13.4 µM (inactive) | GI50 [37]: 19.1 µM (inactive) | GI50 [38]: 16.1 µM (inactive) | GI50 [39]: 17.6 µM (inactive) | GI50 [40]: 19.3 µM (inactive) | GI50 [42]: 17.3 µM (inactive) | GI50 [43]: 17.5 µM (inactive) | GI50 [44]: 20.8 µM (inactive) | GI50 [45]: 16.3 µM (inactive) | GI50 [46]: 22.2 µM (inactive) | GI50 [47]: 15.9 µM (inactive) | GI50 [48]: 17.9 µM (inactive) | GI50 [49]: 17.8 µM (inactive) | GI50 [50]: 11.2 µM (inactive) | GI50 [51]: 16.7 µM (inactive) | GI50 [52]: 18.4 µM (inactive) | GI50 [53]: 19.9 µM (inactive) | GI50 [54]: 14 µM (inactive) | GI50 [55]: 16.9 µM (inactive) | GI50 [56]: 17.4 µM (inactive) | GI50 [57]: 18.3 µM (inactive)
